From the supplement of paper PMC10307832

Tests used:
Assay in all cases: relative viability (nuclei count vs DMSO), 5 days (fraction); higher = more cells survive
[1] = tested on: RERF-LC-KJ
Summary of the method: (§1)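 Dosing by pin tool came one day after lung cancer cell lines were seeded in 1536-well plates, using either one drug or a fixed anchor-drug dose plus five library-drug doses (not always all listed) in √10 steps. After 5 days, nuclei were counted on 4× images. Relative viability is treated-well nuclei count divided by vehicle-well nuclei count, and values are medians of duplicate plates.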

[2] = tested on: NCI-H2170
Summary of the method: as §1

[3] = tested on: SK-MES-1
Summary of the method: as §1

[4] = tested on: NCI-H322M
Summary of the method: as §1

[5] = tested on: NCI-H1651
Summary of the method: as §1

[6] = tested on: NCI-H596
Summary of the method: as §1

[7] = tested on: NCI-H3122
Summary of the method: as §1

[8] = tested on: NCI-H2347
Summary of the method: as §1

[9] = tested on: PC-14
Summary of the method: as §1

[10] = tested on: NCI-H520
Summary of the method: as §1

[11] = tested on: NCI-H727
Summary of the method: as §1

[12] = tested on: NCI-H460
Summary of the method: as §1

[13] = tested on: NCI-H1355
Summary of the method: as §1

[14] = tested on: NCI-H1915
Summary of the method: as §1

[15] = tested on: NCI-H1755
Summary of the method: as §1

[16] = tested on: LXF-289
Summary of the method: as §1

[17] = tested on: NCI-H1792
Summary of the method: as §1

[18] = tested on: NCI-H441
Summary of the method: as §1

`C[C@@H]1CN(CC(=O)Nc2ccc3c(c2)Cc2cccc(-c4cc(=O)cc(N5CCOCC5)o4)c2S3)C[C@H](C)O1` + CC1(C)CCC(c2ccc(Cl)cc2)=C(CN2CCN(c3ccc(C(=O)NS(=O)(=O)c4ccc(N[C@H](CCN5CCOCC5)CSc5ccccc5)c(S(=O)(=O)C(F)(F)F)c4)cc3)CC2)C1 [Navitoclax] (partner 0.5 µM) gave a relative viability ([1]; first compound 0.04 µM) of 0.736, a relative viability ([1]; first compound 0.1265 µM) of 1.12 and a relative viability ([1]; first compound 0.4 µM) of 1.16. The relative viability ([1]; first compound 4 µM) was 0.713, the relative viability ([2]; first compound 0.1265 µM) was 0.617 and the relative viability ([2]; first compound 0.4 µM) was 0.471. It also gave a relative viability ([2]; first compound 4 µM) of 0.475, a relative viability ([3]; first compound 0.04 µM) of 1.37 and a relative viability ([3]; first compound 0.1265 µM) of 1.16. The relative viability ([3]; first compound 0.4 µM) was 1.1, the relative viability ([3]; first compound 4 µM) was 1.1 and the relative viability ([4]; first compound 0.04 µM) was 1.17. The relative viability ([4]; first compound 0.1265 µM) was 1.18, the relative viability ([4]; first compound 0.4 µM) was 1.23 and the relative viability ([4]; first compound 4 µM) was 1.12. The relative viability ([5]; first compound 0.04 µM) was 1.05, the relative viability ([5]; first compound 0.1265 µM) was 0.987 and the relative viability ([5]; first compound 0.4 µM) was 0.836. The relative viability ([5]; first compound 4 µM) was 1.03, the relative viability ([6]; first compound 0.04 µM) was 0.958 and the relative viability ([6]; first compound 0.1265 µM) was 0.994. The relative viability ([6]; first compound 0.4 µM) was 0.934, the relative viability ([6]; first compound 4 µM) was 0.992 and the relative viability ([7]; first compound 0.04 µM) was 1.05. For the same compound, the relative viability ([7]; first compound 0.1265 µM) was 1.03, the relative viability ([7]; first compound 0.4 µM) was 0.965 and the relative viability ([7]; first compound 4 µM) was 0.95. For the same compound, the relative viability ([8]; first compound 0.04 µM) was 0.768, the relative viability ([8]; first compound 0.1265 µM) was 0.81 and the relative viability ([8]; first compound 0.4 µM) was 0.769. For the same compound, the relative viability ([8]; first compound 4 µM) was 0.672, the relative viability ([9]; first compound 0.04 µM) was 1.04 and the relative viability ([9]; first compound 0.1265 µM) was 0.987. The relative viability ([9]; first compound 0.4 µM) was 1.01, the relative viability ([9]; first compound 4 µM) was 0.797 and the relative viability ([10]; first compound 0.04 µM) was 1.2. It also gave a relative viability ([10]; first compound 0.1265 µM) of 1.03, a relative viability ([10]; first compound 0.4 µM) of 0.888 and a relative viability ([10]; first compound 4 µM) of 1.08. It also gave a relative viability ([11]; first compound 0.04 µM) of 0.482, a relative viability ([11]; first compound 0.1265 µM) of 0.494 and a relative viability ([11]; first compound 0.4 µM) of 0.412. The relative viability ([11]; first compound 4 µM) was 0.381, the relative viability ([12]; first compound 0.04 µM) was 1.07 and the relative viability ([12]; first compound 0.1265 µM) was 1.17. For the same compound, the relative viability ([12]; first compound 0.4 µM) was 1.22, the relative viability ([12]; first compound 4 µM) was 0.955 and the relative viability ([13]; first compound 0.04 µM) was 0.978. For the same compound, the relative viability ([13]; first compound 0.1265 µM) was 0.894, the relative viability ([13]; first compound 0.4 µM) was 0.856 and the relative viability ([13]; first compound 4 µM) was 0.899. For the same compound, the relative viability ([14]; first compound 0.04 µM) was 0.792, the relative viability ([14]; first compound 0.1265 µM) was 0.789 and the relative viability ([14]; first compound 0.4 µM) was 0.796. The relative viability ([14]; first compound 4 µM) was 0.753, the relative viability ([15]; first compound 0.04 µM) was 1.02 and the relative viability ([15]; first compound 0.1265 µM) was 0.945. It also gave a relative viability ([15]; first compound 0.4 µM) of 0.924, a relative viability ([15]; first compound 4 µM) of 0.92 and a relative viability ([16]; first compound 0.04 µM) of 0.941. For the same compound, the relative viability ([16]; first compound 0.1265 µM) was 0.929, the relative viability ([16]; first compound 0.4 µM) was 1 and the relative viability ([16]; first compound 4 µM) was 0.913. For the same compound, the relative viability ([17]; first compound 0.04 µM) was 0.593, the relative viability ([17]; first compound 0.1265 µM) was 0.597 and the relative viability ([17]; first compound 0.4 µM) was 0.632. It also gave a relative viability ([17]; first compound 4 µM) of 0.597, a relative viability ([18]; first compound 0.04 µM) of 0.427 and a relative viability ([18]; first compound 0.4 µM) of 0.576. It also gave a relative viability ([18]; first compound 4 µM) of 0.318.

`COc1cc(N2CCC(C(N)=O)CC2)ccc1Nc1nc(N)c(Cl)c(Nc2ccccc2S(=O)(=O)C(C)C)n1` [HG-5-88-01] + CC1(C)CCC(c2ccc(Cl)cc2)=C(CN2CCN(c3ccc(C(=O)NS(=O)(=O)c4ccc(N[C@H](CCN5CCOCC5)CSc5ccccc5)c(S(=O)(=O)C(F)(F)F)c4)cc3)CC2)C1 [Navitoclax] (partner 0.5 µM) gave a relative viability ([1]; first compound 0.04 µM) of 1.05, a relative viability ([1]; first compound 0.1265 µM) of 0.846 and a relative viability ([1]; first compound 0.4 µM) of 0.954. The relative viability ([1]; first compound 1.265 µM) was 0.941, the relative viability ([1]; first compound 4 µM) was 0.5 and the relative viability ([2]; first compound 0.04 µM) was 0.554. It also gave a relative viability ([2]; first compound 0.1265 µM) of 0.574, a relative viability ([2]; first compound 0.4 µM) of 0.674 and a relative viability ([2]; first compound 1.265 µM) of 0.311. The relative viability ([2]; first compound 4 µM) was 0.73, the relative viability ([3]; first compound 0.04 µM) was 1.17 and the relative viability ([3]; first compound 0.1265 µM) was 1.29. For the same compound, the relative viability ([3]; first compound 0.4 µM) was 1.2, the relative viability ([3]; first compound 1.265 µM) was 1.21 and the relative viability ([3]; first compound 4 µM) was 1.03. It also gave a relative viability ([4]; first compound 0.04 µM) of 1.16, a relative viability ([4]; first compound 0.1265 µM) of 1.21 and a relative viability ([4]; first compound 0.4 µM) of 1.18. It also gave a relative viability ([4]; first compound 1.265 µM) of 0.907, a relative viability ([4]; first compound 4 µM) of 1.26 and a relative viability ([5]; first compound 0.04 µM) of 1.27. It also gave a relative viability ([5]; first compound 0.1265 µM) of 1.04, a relative viability ([5]; first compound 0.4 µM) of 1.08 and a relative viability ([5]; first compound 1.265 µM) of 1.05. For the same compound, the relative viability ([5]; first compound 4 µM) was 1.04, the relative viability ([6]; first compound 0.04 µM) was 0.943 and the relative viability ([6]; first compound 0.1265 µM) was 0.98. The relative viability ([6]; first compound 0.4 µM) was 1.06, the relative viability ([6]; first compound 1.265 µM) was 1.02 and the relative viability ([6]; first compound 4 µM) was 0.901. The relative viability ([7]; first compound 0.04 µM) was 0.905, the relative viability ([7]; first compound 0.1265 µM) was 0.611 and the relative viability ([7]; first compound 0.4 µM) was 0.444. It also gave a relative viability ([7]; first compound 1.265 µM) of 0.198, a relative viability ([7]; first compound 4 µM) of 0.255 and a relative viability ([8]; first compound 0.04 µM) of 0.786. It also gave a relative viability ([8]; first compound 0.1265 µM) of 0.863, a relative viability ([8]; first compound 0.4 µM) of 0.893 and a relative viability ([8]; first compound 1.265 µM) of 0.696. The relative viability ([8]; first compound 4 µM) was 0.685, the relative viability ([9]; first compound 0.04 µM) was 0.953 and the relative viability ([9]; first compound 0.1265 µM) was 1.05. The relative viability ([9]; first compound 0.4 µM) was 0.995, the relative viability ([9]; first compound 1.265 µM) was 1.12 and the relative viability ([9]; first compound 4 µM) was 0.272. The relative viability ([10]; first compound 0.04 µM) was 1.09, the relative viability ([10]; first compound 0.1265 µM) was 1.09 and the relative viability ([10]; first compound 0.4 µM) was 0.761. It also gave a relative viability ([10]; first compound 1.265 µM) of 1.17, a relative viability ([10]; first compound 4 µM) of 1.26 and a relative viability ([11]; first compound 0.04 µM) of 0.532. The relative viability ([11]; first compound 0.1265 µM) was 0.416, the relative viability ([11]; first compound 0.4 µM) was 0.469 and the relative viability ([11]; first compound 1.265 µM) was 0.224. The relative viability ([11]; first compound 4 µM) was 0.0929, the relative viability ([12]; first compound 0.04 µM) was 0.975 and the relative viability ([12]; first compound 0.1265 µM) was 1.12. For the same compound, the relative viability ([12]; first compound 0.4 µM) was 0.901, the relative viability ([12]; first compound 1.265 µM) was 1.15 and the relative viability ([12]; first compound 4 µM) was 1.06. It also gave a relative viability ([13]; first compound 0.04 µM) of 1.01, a relative viability ([13]; first compound 0.1265 µM) of 1.08 and a relative viability ([13]; first compound 0.4 µM) of 0.959. For the same compound, the relative viability ([13]; first compound 1.265 µM) was 0.789, the relative viability ([13]; first compound 4 µM) was 0.841 and the relative viability ([14]; first compound 0.04 µM) was 0.771. For the same compound, the relative viability ([14]; first compound 0.1265 µM) was 0.783, the relative viability ([14]; first compound 0.4 µM) was 0.813 and the relative viability ([14]; first compound 1.265 µM) was 0.845. The relative viability ([14]; first compound 4 µM) was 0.669, the relative viability ([15]; first compound 0.1265 µM) was 0.991 and the relative viability ([15]; first compound 0.4 µM) was 1.01. For the same compound, the relative viability ([15]; first compound 1.265 µM) was 1.01, the relative viability ([15]; first compound 4 µM) was 1.01 and the relative viability ([16]; first compound 0.04 µM) was 0.937. For the same compound, the relative viability ([16]; first compound 0.1265 µM) was 0.979, the relative viability ([16]; first compound 0.4 µM) was 0.972 and the relative viability ([16]; first compound 1.265 µM) was 1.01. It also gave a relative viability ([16]; first compound 4 µM) of 1.02, a relative viability ([17]; first compound 0.04 µM) of 0.685 and a relative viability ([17]; first compound 0.1265 µM) of 0.614. It also gave a relative viability ([17]; first compound 0.4 µM) of 0.578, a relative viability ([17]; first compound 1.265 µM) of 0.685 and a relative viability ([17]; first compound 4 µM) of 0.738. For the same compound, the relative viability ([18]; first compound 0.04 µM) was 0.661, the relative viability ([18]; first compound 0.1265 µM) was 0.675 and the relative viability ([18]; first compound 0.4 µM) was 0.714. It also gave a relative viability ([18]; first compound 1.265 µM) of 0.609 and a relative viability ([18]; first compound 4 µM) of 0.679.
